Source: article PMC10174618, “Monoterpenoid aryl hydrocarbon receptor allosteric antagonists protect against ultraviolet skin damage in female mice” (Nature Communications, 2023)

What was measured:
Test in all cases: biochemical
Design in all cases: KINOMEscan scanMAX active site-directed competition binding assay, percent of control, 468 kinases
Settings in all cases: competition binding, percent of control
CDK4-cyclinD1 = target: T1, CDK4-cyclinD1 (Homo sapiens, UniProt P11802)
T1 construct: cyclinD1
Summary of the method: (§1)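 KINOMEscan active site-directed competition binding assay against 468 human kinases with 100 μM S-carvone. Binding expressed as % of control, with 35% of control as the inhibition threshold.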

CAMKK1 = CAMKK1 (Homo sapiens, UniProt Q8N5S9)
Summary of the method: as §1

KIT-autoinhibited = KIT-autoinhibited (Homo sapiens, UniProt P10721)
Summary of the method: as §1

AKT3 = AKT3 (Homo sapiens, UniProt Q9Y243)
Chain of AKT3 (Q9Y243 whole entry): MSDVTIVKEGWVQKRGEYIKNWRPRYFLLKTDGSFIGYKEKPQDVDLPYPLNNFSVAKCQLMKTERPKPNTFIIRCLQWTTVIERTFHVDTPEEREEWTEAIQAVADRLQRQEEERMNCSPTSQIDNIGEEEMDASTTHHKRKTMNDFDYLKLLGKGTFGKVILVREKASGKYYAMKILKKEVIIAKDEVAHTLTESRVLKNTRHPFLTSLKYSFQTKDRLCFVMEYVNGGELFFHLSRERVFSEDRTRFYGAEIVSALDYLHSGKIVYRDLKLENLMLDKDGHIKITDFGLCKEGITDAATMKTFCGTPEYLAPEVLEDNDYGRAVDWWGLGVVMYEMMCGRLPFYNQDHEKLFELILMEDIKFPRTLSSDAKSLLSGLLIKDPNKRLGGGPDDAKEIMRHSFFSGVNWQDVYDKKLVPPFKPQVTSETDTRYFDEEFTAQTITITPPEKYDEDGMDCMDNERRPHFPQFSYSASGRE
Summary of the method: as §1

DRAK2 = target: T2, DRAK2 (Homo sapiens, UniProt O94768)
T2 construct: gene STK17B
T2 sequence (O94768 whole entry): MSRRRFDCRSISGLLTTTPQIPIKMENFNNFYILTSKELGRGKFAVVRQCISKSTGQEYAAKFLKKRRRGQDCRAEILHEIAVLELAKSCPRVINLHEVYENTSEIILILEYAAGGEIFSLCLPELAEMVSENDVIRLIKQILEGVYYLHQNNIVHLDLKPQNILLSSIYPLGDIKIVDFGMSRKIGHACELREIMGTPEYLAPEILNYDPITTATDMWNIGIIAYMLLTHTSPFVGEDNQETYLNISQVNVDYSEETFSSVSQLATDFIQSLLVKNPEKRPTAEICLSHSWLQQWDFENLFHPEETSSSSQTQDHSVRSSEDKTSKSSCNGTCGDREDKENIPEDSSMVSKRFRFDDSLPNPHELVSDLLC
Summary of the method: as §1

RET(M918T) = RET(M918T) (Homo sapiens, UniProt P07949, M918T)
Summary of the method: as §1

MAST1 = MAST1 (Homo sapiens, UniProt Q9Y2H9)
Summary of the method: as §1

PAK4 = PAK4 (Homo sapiens, UniProt O96013)
Summary of the method: as §1

ERN1 = ERN1 (Homo sapiens, UniProt O75460)
Chain of ERN1 (O75460 whole entry): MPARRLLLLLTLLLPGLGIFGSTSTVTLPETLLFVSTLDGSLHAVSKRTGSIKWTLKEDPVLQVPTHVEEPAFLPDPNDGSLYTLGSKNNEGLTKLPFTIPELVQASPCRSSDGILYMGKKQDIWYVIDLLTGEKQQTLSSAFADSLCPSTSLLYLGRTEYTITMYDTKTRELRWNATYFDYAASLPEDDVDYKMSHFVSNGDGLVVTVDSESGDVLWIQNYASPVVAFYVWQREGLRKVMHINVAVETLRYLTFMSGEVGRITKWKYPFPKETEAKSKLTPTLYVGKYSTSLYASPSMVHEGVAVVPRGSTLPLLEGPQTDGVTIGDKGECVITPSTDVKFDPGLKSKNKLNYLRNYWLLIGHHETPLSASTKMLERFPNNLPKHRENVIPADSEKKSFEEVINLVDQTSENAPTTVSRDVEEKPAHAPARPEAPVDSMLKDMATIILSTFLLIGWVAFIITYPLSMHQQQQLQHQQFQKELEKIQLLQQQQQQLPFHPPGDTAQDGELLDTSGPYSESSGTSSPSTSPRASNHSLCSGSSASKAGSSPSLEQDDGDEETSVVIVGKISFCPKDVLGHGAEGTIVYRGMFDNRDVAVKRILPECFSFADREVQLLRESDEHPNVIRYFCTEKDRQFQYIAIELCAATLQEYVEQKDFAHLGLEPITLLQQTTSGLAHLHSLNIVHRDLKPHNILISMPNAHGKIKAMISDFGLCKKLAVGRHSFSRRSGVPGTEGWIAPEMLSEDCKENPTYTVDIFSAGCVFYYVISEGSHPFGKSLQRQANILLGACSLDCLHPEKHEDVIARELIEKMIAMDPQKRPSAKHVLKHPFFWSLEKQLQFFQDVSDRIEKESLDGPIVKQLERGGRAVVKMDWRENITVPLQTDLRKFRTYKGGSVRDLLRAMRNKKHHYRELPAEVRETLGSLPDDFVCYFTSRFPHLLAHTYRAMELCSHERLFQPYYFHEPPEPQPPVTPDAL
Summary of the method: as §1

PIM3 = PIM3 (Homo sapiens, UniProt Q86V86)
Summary of the method: as §1

RIPK1 = RIPK1 (Homo sapiens, UniProt Q13546)
Chain of RIPK1 (Q13546 whole entry): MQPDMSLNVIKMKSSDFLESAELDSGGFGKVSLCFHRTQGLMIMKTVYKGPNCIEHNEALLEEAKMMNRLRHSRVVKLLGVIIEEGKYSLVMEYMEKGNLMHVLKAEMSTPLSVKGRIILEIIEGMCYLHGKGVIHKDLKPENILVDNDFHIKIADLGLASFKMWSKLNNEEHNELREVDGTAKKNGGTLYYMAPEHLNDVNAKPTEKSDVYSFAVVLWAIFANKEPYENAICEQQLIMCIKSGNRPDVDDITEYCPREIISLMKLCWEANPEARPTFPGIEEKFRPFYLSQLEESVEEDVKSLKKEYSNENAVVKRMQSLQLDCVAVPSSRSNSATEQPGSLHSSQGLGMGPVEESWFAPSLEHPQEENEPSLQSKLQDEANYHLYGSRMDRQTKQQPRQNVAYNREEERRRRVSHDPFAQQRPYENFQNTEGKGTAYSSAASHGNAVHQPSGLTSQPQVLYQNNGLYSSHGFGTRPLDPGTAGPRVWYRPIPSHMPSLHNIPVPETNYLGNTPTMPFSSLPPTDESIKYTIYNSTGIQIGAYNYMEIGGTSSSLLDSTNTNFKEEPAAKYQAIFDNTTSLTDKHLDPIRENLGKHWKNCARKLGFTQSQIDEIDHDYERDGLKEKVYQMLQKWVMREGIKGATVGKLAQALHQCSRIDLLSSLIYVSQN
Summary of the method: as §1

PKMYT1 = PKMYT1 (Homo sapiens, UniProt Q99640)
Summary of the method: as §1

PIK3CA(H1047L) = PIK3CA(H1047L) (Homo sapiens, UniProt P42336, H1047L)
Chain of PIK3CA(H1047L) (P42336 whole entry H1047L): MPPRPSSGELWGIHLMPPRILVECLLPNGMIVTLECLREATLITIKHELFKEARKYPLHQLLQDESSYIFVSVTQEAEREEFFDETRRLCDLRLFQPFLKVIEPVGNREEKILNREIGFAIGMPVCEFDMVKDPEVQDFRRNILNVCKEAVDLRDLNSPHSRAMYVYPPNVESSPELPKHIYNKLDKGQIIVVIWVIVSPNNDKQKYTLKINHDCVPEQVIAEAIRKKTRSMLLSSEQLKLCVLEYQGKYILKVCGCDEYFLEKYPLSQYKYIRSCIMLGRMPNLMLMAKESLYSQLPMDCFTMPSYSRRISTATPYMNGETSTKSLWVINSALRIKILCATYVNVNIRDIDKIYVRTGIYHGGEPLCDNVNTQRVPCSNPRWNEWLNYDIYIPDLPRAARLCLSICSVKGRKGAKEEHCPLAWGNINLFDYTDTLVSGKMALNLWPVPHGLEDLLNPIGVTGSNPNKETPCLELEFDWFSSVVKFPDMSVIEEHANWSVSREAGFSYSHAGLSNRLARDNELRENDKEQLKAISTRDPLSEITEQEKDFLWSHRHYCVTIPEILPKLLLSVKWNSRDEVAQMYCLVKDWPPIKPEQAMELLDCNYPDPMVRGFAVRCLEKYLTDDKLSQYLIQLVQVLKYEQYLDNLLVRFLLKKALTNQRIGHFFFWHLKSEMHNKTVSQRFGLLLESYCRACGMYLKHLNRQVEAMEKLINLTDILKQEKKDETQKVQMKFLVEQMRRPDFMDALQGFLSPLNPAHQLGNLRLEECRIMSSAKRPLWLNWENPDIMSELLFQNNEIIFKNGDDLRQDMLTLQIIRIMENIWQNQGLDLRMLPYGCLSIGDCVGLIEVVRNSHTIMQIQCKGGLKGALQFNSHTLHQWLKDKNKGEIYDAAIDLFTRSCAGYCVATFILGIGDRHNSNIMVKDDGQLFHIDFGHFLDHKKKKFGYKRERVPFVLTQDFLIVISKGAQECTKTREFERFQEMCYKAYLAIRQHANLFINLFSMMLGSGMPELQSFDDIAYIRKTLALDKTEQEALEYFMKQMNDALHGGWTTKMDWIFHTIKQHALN
Summary of the method: as §1

MST3 = target: T3, MST3 (Homo sapiens, UniProt Q9Y6E0)
T3 construct: gene STK24
Summary of the method: as §1

ERK8 = target: T4, ERK8 (Homo sapiens, UniProt Q8TD08)
T4 construct: gene MAPK15
Summary of the method: as §1

LRRK2 = LRRK2 (Homo sapiens, UniProt Q5S007)
Summary of the method: as §1

HIPK1 = HIPK1 (Homo sapiens, UniProt Q86Z02)
Summary of the method: as §1

JNK2 = target: T5, JNK2 (Homo sapiens, UniProt P45984)
T5 construct: gene MAPK9
Summary of the method: as §1

PFTAIRE2 = target: T6, PFTAIRE2 (Homo sapiens, UniProt Q96Q40)
T6 construct: gene CDK15
Summary of the method: as §1

RET = RET (Homo sapiens, UniProt P07949)
Summary of the method: as §1

AXL = AXL (Homo sapiens, UniProt P30530)
Chain of AXL (P30530 whole entry): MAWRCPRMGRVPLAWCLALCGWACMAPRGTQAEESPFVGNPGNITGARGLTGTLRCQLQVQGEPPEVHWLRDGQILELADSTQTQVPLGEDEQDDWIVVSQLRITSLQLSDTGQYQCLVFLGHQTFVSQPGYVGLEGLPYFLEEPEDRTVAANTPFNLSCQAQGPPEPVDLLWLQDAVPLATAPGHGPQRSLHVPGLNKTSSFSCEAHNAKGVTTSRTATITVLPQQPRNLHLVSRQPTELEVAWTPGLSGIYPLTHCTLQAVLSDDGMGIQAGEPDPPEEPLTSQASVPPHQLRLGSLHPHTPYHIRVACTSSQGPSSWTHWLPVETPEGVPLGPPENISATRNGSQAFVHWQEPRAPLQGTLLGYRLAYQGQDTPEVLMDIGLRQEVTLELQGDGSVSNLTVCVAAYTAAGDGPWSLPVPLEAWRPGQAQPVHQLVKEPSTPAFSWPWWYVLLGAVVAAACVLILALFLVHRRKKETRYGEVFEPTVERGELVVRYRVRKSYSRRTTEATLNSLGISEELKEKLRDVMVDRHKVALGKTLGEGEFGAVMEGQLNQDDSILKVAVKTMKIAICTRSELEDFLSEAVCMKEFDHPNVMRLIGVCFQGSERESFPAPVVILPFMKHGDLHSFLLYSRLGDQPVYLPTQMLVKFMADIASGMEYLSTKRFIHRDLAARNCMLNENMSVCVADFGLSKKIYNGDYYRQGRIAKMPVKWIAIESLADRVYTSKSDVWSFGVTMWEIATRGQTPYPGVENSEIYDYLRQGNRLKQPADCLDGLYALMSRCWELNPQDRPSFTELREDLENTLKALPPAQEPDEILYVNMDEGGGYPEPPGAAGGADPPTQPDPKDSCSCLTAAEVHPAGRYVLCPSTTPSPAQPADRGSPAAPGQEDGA
Summary of the method: as §1

YANK1 = target: T7, YANK1 (Homo sapiens, UniProt Q8WU08)
T7 construct: gene STK32A
Summary of the method: as §1

remaining binding at 100 µM (CDK4-cyclinD1): 73% | remaining binding at 100 µM (CAMKK1): 94% | remaining binding at 100 µM (KIT-autoinhibited): 74% | remaining binding at 100 µM (AKT3): 90% | remaining binding at 100 µM (DRAK2): 98% | remaining binding at 100 µM (RET(M918T)): 93% | remaining binding at 100 µM (MAST1): 75% | remaining binding at 100 µM (PAK4): 74% | remaining binding at 100 µM (ERN1): 90% | remaining binding at 100 µM (PIM3): 72% | remaining binding at 100 µM (RIPK1): 87% | remaining binding at 100 µM (PKMYT1): 86% | remaining binding at 100 µM (PIK3CA(H1047L)): 74% | remaining binding at 100 µM (MST3): 64% | remaining binding at 100 µM (LRRK2): 100% | remaining binding at 100 µM (HIPK1): 61% | remaining binding at 100 µM (JNK2): 95% | remaining binding at 100 µM (PFTAIRE2): 87% | remaining binding at 100 µM (RET): 82% | remaining binding at 100 µM (AXL): 82% | remaining binding at 100 µM (YANK1): 78%
Structure (SMILES): C=C(C)[C@H]1CC=C(C)C(=O)C1 [S-carvone]
remaining binding at 100 µM (ERK8): 91%
